Test results from patent publication US20050013781A1, “Sunscreen composition” (Playtex Products, Inc., priority 2003, published 2005).

Legend:
Type in all cases: physicochemical
[1] = DOE (central composite design) photostability of model oil phases: retained absorbance after 15 MED; conditions: response surface analysis of DOE 1-3
Method: In order to determine the impact of the concentration of avobenzone, from 0.04842 M to 0.0968 M (Factor 1) and different molar ratios of 1,2-octanediol (caprylyl glycol) to avobenzone, from 0 to 10 (Factor 2), on the photostability of avobenzone in the different sunscreen compositions, numerous studies were conducted. Three designs of experiments that represent central composite designs (CCDs) and D.O.E. Fusion 7.2.2 software were employed.
The CCD type of design was used to determine the effect of two factors: concentration of Avobenzone and the molar ratio 1,2-octanediol/avobenzone on the photostability of avobenzone in the different sunscreen compositions. Two responses were measured: the retained absorbance (%) of a sunscreen composition at 370 nm (UVA) and the same measurement at 310 nm (UVB) after irradiation dose of 15 MED.
The same order of experiments was run in the different set-ups. As a result, two categorical factors were added: Oxybenzone (absent or present at a predetermined constant level) and Octocrylene (absent or present at a predetermined constant level). Table 16 presents the three set-ups as well as the numbers of the formulation tables and response tables.
Response surface equalization were fitted to both responses (retained absorbance at 370 nm and retained absorbance at 310 nm, both after an irradiation dose of 15 MED). The significant factors were selected.

[2] = Dielectric constant of glycols and derivatives; conditions: for Dielectric Constant, 23° C.: neat glycol/derivative
Text: Determining the polarity of a mixture or an emulsion can be performed in various ways. For example, determining a polarity can include measuring a property that is a function of polarity, such as a dielectric constant. Measurement of a dielectric constant of a liquid can be performed by various sensors, such as immersion probes, flow-through probes, and cup-type probes, attached to various meters, such as those available from the Brookhaven Instruments Corporation of Holtsville, N.Y. (e.g., model BI-870) and the Scientifica Company of Princeton, N.J. (e.g. models 850 and 870). For consistency of comparison, preferably all measurements for a particular filter system are performed at substantially the same sample temperature, e.g., by use of a water bath. Generally, the measured dielectric constant of a substance will increase at lower temperatures and decrease at higher temperatures.
Dielectric Constants of the following glycols and their derivatives have been measured (see Table 1).

[3] = Photostability on VITRO-SKIN: retained absorbance and critical wavelength before and after irradiation
Method: Referring to Table 7 above, the compositions were applied on Vitro-Skin (0.6 mg/cm2) and irradiated. The irradiation dose was 5 MEDs repeated 4 times (=20 MEDs total). Retained Absorbance at 370 nm (UVA photostability, FIG. 1), 310 nm (UVB photostability, FIG. 2) and critical wavelength (Table 8, FIG. 3) were determined for each composition before and after each irradiation dose in order to determine their photostability.
The resulting sunscreen oil phases were tested for photostability by measuring absorbance on a Labsphere UV-1000S Ultraviolet Transmittance Analyzer before and after irradiation with a Solar Light Company model 16S solar simulator (equipped with a WG 320 filter to transmit radiation greater than 290 nm) in 5 MED (105 mJ/cm^2) increments up to 20 MED cumulative dose. Output was monitored by a PMA 2105 UV-B DCS Detector (biologically weighted) and controlled by a PMA 2100 Automatic Dose Controller (Solar Light Co.).
A synthetic skin substrate was used for testing the sunscreen compositions (VITRO-SKIN substrate by IMS, Inc. of Milford, Conn.). To prepare the substrate, a 300 g solution of 44 g of glycerin and 256 g of deionized water was added to an IMS hydrating chamber, and a sheet of VITRO-SKIN was placed in the hydrating chamber for approx. 16 hours. Several 6.5 cm squares were cut from the hydrated VITRO-SKIN and used for absorbance measurements.
To prepare slides for testing, sunscreen composition is drawn or placed into a pipette. The test composition is uniformly applied to VITRO-SKIN square (0.6 mg/cm^2). This application dose of the oil phase, 0.6 mg/cm^2, corresponds to the application dose of 2 mg/cm^2 of sunscreen formulation (typically the concentration of the oil phase in the sunscreen formulation is about 30%). The VITRO-SKIN square was then placed on a foam block, and the test material was spread by finger (covered with a latex glove or finger cot), first in a circular motion, then by a side-to-side motion during which the VITRO-SKIN is deformed by the pressure. The square was then mounted in a slide holder and allowed to dry for about 15 to 20 minutes.
To test photostability, a slide was positioned on the UV transmittance analyzer using registration marks, and a scan of 1 sq. cm spot on the slide was performed. The slide was then transferred to a holder placed adjacent to the solar simulator and, using a calipers, was positioned such that the beam of UV radiation exiting the solar simulator illuminated the same 1 cm spot on the slide. The following software settings were used: UV-B—290-320 nm; UV-A—320-400 nm; SPF—290-400 nm; Spectral Irradiance; Noon, July 3, Albuquerque, N.Mex.; SPF Spectral Irradiance and Erythermal Effectiveness settings as set by manufacturer. Following an exposure of 5 MED, the slide was again placed in position on the UV transmittance analyzer, and a scan of the exposed spot was performed. The procedure was repeated on the same 1 cm spot on the slide until the desired total radiation dosage was achieved.
The above compositions were applied on Vitro-Skin (0.6 mg/cm2) and irradiated. The irradiation dose was 5 MEDs repeated 4 times (=20 MEDs total). Retained Absorbance at 370 nm (Table 11 and FIG. 4), 310 nm (Table 12) and critical wavelength (Table 13 and FIG. 5) were determined for each composition before and after each irradiation dose in order to determine their photostability. The methodology is described above in more detail in Example 3.

Compound | effect on retained absorbance at 310 nm after 15 MED (in words) [1] | effect on retained absorbance at 370 nm after 15 MED (in words) [1] | Dielectric Constant, 23° C. [2] | photostability of UVB sunscreens at 310 nm (in words) [3] | photostability of avobenzone at 370 nm (in words) [3] | further results
CCCCCCC(O)CO (centres unmarked) [1,2-Octanediol] | significantly improves the photostability of sunscreens at 310 nm | significantly improves the photostability | – | – | – | Dielectric Constant ([2]; measured at 30° C., solid at room temperature (23 C.)): 10.61; photostabilization of avobenzone (in words) [3]: most effectively stabilizes avobenzone
CCCCOCCOCCO [Diethylene Glycol Monobutyl Ether] | – | – | 10.59 | – | – | –
CCCCC(O)CO (centres unmarked) [1,2-Hexanediol] | – | – | 15.1 | can improve the photostability of UVB sunscreens at 310 nm | without the significant improvement of the photostability of avobenzone at 370 nm | –
Polyethylene Glycol-7 Methyl Ether | – | – | 13.1 | – | – | –
CCCC(O)CO (centres unmarked) [Pentylene Glycol, 1,2-pentanediol] | – | – | 18.2 | can improve the photostability of UVB sunscreens at 310 nm | without the significant improvement of the photostability of avobenzone at 370 nm | –
CCC(=O)OCCCCO [Butylene Glycol Monopropionate] | – | – | 11.72 | – | – | –
COc1ccc(C(=O)c2ccccc2)c(O)c1 [Oxybenzone, oxybenzone] | helps retention at 310 nm | gives the highest boost in retain absorbance at 370 nm and 15 MED exposure | – | – | – | –
CCOCCOCCO [Ethoxydiglycol, Diethylene glycol monoethyl ether] | – | – | 13.69 | can improve the photostability of UVB sunscreens at 310 nm | without the significant improvement of the photostability of avobenzone at 370 nm | –
CCCCC(CC)COC(=O)C(C#N)=C(c1ccccc1)c1ccccc1 (centres unmarked) [Octocrylene, 2-ethylhexyl-2-cyano-3,3 diphenylacrylate] | gives mild a gain in absorbency | helps the absorbance retention 370 nm, but not as significant as in the case of oxybenzone | – | – | – | –
